test system: G. duodenalis BRIS/91/HEPU/1279; assay: Primary Giardia screen at 10 µM (live-cell imaging, automated counting); assay type: cell-based, Giardia duodenalis; details: 24 h
Summary of the method: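 Singlicate, 10 μM final, 0.2% DMSO; sealed chambers, 3% O2/5% CO2/N2. Counts by live-cell imaging at 24 h and 48 h. % growth vs vehicle, media background subtracted; Z' per plate.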

| Structure (SMILES) | Average % Inhibition 24h [%] |
| --- | --- |
| COc1ccc(C2=Nc3ccccc3N(CC(=O)Nc3cccc(F)c3)C(=O)C2)cc1 [SN00791795] | 12.6 |
| COc1ccc(C2=Nc3ccccc3N(Cc3cccc(F)c3)C(=O)C2)cc1 [SN00791806] | 8.7 |

same assay, conditions: 24 h, first singlicate assay

| Structure (SMILES) | % Inhibition n=1 24h [%] |
| --- | --- |
| COc1ccc(C2=Nc3ccccc3N(CC(=O)Nc3cccc(F)c3)C(=O)C2)cc1 [SN00791795] | 25.2 |
| COc1ccc(C2=Nc3ccccc3N(Cc3cccc(F)c3)C(=O)C2)cc1 [SN00791806] | 17.4 |

same assay, conditions: 24 h, re-assessment

| Structure (SMILES) | % Inhibition n=2 24h [%] |
| --- | --- |
| COc1ccc(C2=Nc3ccccc3N(CC(=O)Nc3cccc(F)c3)C(=O)C2)cc1 [SN00791795] | 0.0 |
| COc1ccc(C2=Nc3ccccc3N(Cc3cccc(F)c3)C(=O)C2)cc1 [SN00791806] | 0.0 |

same assay, conditions: 48 h

| Structure (SMILES) | Average % Inhibition 48h [%] |
| --- | --- |
| COc1ccc(C2=Nc3ccccc3N(CC(=O)Nc3cccc(F)c3)C(=O)C2)cc1 [SN00791795] | 40.3 |
| COc1ccc(C2=Nc3ccccc3N(Cc3cccc(F)c3)C(=O)C2)cc1 [SN00791806] | 30.2 |

same assay, conditions: 48 h, first singlicate assay

| Structure (SMILES) | % Inhibition n=1 48h [%] |
| --- | --- |
| CC(C)n1c(=O)c2cn(S(=O)(=O)c3ccccc3)nc2n(C(C)C)c1=O [SN00791107] | 5.9 |
| CCS(=O)(=O)N1CCC2(CC1)OC(=O)C(C)=C2C(=O)Nc1ccc(C)cc1C [SN00791146] | 0.0 |
| CCCN1CCN(C(=O)C2=C(C)C(=O)OC23CCN(S(=O)(=O)CC)CC3)CC1 [SN00791149] | 0.0 |
| O=C(Cn1c2ncccc2c(=O)n1-c1ccccc1)NC1CCCC1 [SN00791196] | 18.2 |
| CCC1c2cccn2-c2ccccc2CN1C(=O)NCCc1ccccc1 (stereo not drawn) [SN00791262] | 18.8 |
| CCOCCCNC(=O)N1Cc2ccccc2-n2cccc2C1c1ccccc1 (stereo not drawn) [SN00791279] | 0.0 |
| COc1cc(-c2noc(-c3cc(-c4ccco4)n[nH]3)n2)cc(OC)c1OC [SN00791289] | 2.3 |
| COc1ccc(-c2noc(-c3cc(-c4cccs4)n[nH]3)n2)cc1 [SN00791300] | 15.5 |
| COc1ccc(Cl)cc1-n1nnc(-c2nsc(NC(=O)c3ccccc3)n2)c1C [SN00791316] | 20.0 |
| COCCN1C(=O)c2oc3ccccc3c2OCC1(C)C(=O)NCc1ccccc1OC (stereo not drawn) [SN00791365] | 21.5 |
| COCCCN1C(=O)CSc2c(c(C)nn2-c2ccccc2)C1C(=O)NCc1ccccc1OC (stereo not drawn) [SN00791374] | 0.0 |
| Cc1nn(-c2ccccc2)c2c1C(C(=O)NC1CCCC1)N(c1ccc(F)cc1F)C(=O)CS2 (stereo not drawn) [SN00791377] | 1.8 |
| Cc1[nH]c(C)c(S(=O)(=O)N2CCCc3ccccc32)c1C(=O)N1CCCCC1 [SN00791426] | 0.0 |
| Cc1c(C(=O)N2CCCCC2)c(S(=O)(=O)N2CCN(c3ccccn3)CC2)c(C)n1C [SN00791445] | 0.0 |
| COc1ccc(OC)c(CNC(=O)c2ccc(N3CCOc4ccccc43)s2)c1 [SN00791505] | 9.9 |
| CCCNC(=O)N1Cc2c(sc3c2CCCC3)-n2cccc2C1CC (stereo not drawn) [SN00791532] | 15.0 |
| COc1ccccc1NC(=O)N1Cc2c(sc3c2CCN(C)C3)-n2cccc2C1C (stereo not drawn) [SN00791542] | 24.5 |
| CCOC(=O)c1ccccc1NC(=O)N1Cc2c(sc3c2CCN(C)C3)-n2cccc2C1CC (stereo not drawn) [SN00791557] | 10.1 |
| CCCN1C(=O)c2c(C(=O)NCCc3ccccc3)ncn2CC1(C)C(=O)NCCC(C)C (stereo not drawn) [SN00791583] | 9.0 |
| CCOc1ccc(CCNC(=O)c2c(C)oc3c2C2=NCCN2C=N3)cc1OCC [SN00791607] | 17.8 |
| COc1ccc(CN2CCN(C(=O)c3c(C)oc4c3C3=NCCN3C=N4)CC2)c(OC)c1OC [SN00791620] | 7.4 |
| O=C(c1noc2ncnc(N3CCCC3)c12)N1CCN(c2ccccn2)CC1 [SN00791654] | 7.3 |
| CCN(c1ccc(OC)cc1)S(=O)(=O)c1csc(C(=O)N(C)C)c1 [SN00791689] | 2.7 |

| Structure (SMILES) | % Inhibition n=1 48h [%] |
| --- | --- |
| CCc1ccc(CNC(=O)c2c[nH]nc2-c2ccc(Cl)cc2)cc1 [SN00791699] | 7.3 |
| O=C(c1c[nH]nc1-c1ccc(Cl)cc1)N1CCN(c2ccccc2)CC1 [SN00791700] | 26.6 |
| O=C(c1cc(CN2CCCC2)on1)N1CCN(C(=O)c2ccco2)CC1 [SN00791727] | 0.0 |
| Cc1cc2n(n1)CCCN2CC(=O)N1CCN(c2ccc(Cl)cc2)CC1 [SN00791741] | 2.4 |
| Cc1cc2n(n1)CCCN2CC(=O)N1CCN(c2cccc(Cl)c2)CC1 [SN00791744] | 5.3 |
| COc1ccc(CNc2nc(-c3cccc(OC)c3)no2)cc1 [SN00791772] | 0.0 |
| COc1cccc(-c2noc(Nc3cccc(C)c3)n2)c1 [SN00791775] | 0.0 |
| COc1ccc(C2=Nc3ccccc3N(CC(=O)Nc3cccc(F)c3)C(=O)C2)cc1 [SN00791795] | 54.2 |
| COc1ccc(C2=Nc3ccccc3N(Cc3cccc(F)c3)C(=O)C2)cc1 [SN00791806] | 50.8 |
| O=C(NCCCN1CCCC1)c1ccc2c(c1)N(CC(=O)N1CCCC1)C(=O)CO2 [SN00791845] | 0.0 |
| C=CCNC(=O)CCN1CCN(Cc2ccccc2)C1=O [SN00791850] | 0.0 |
| Cc1sc2c(c1C)C(c1ccc(F)cc1)=NCC(=O)N2CC(=O)Nc1ccc(Cl)cc1 [SN00791866] | 0.0 |
| CCN(CC)C(=O)CN1C(=O)CN=C(c2ccc(OC)cc2)c2c1sc1c2CCCC1 [SN00791881] | 0.0 |
| CC(=O)N1c2ccc(S(=O)(=O)N3CCCCC3)cc2CC1C(=O)N1CCCCC1 (stereo not drawn) [SN00791893] | 0.0 |
| COc1ccc(-c2cnc(C)o2)cc1S(=O)(=O)Nc1ccc(C)cc1 [SN00792030] | 22.0 |
| O=S(=O)(c1ccc(-c2cnc(C3CC3)o2)cc1)N1CCCCC1 [SN00792043] | 8.3 |
| CCCNc1nc(N2CCN(CC)CC2)c2cnn(C)c2n1 [SN00792083] | 10.1 |
| CCOC(=O)c1ccccc1NC(=O)NC(c1ccccc1)c1nnc(-c2ccccc2)o1 (stereo not drawn) [SN00792113] | 0.0 |
| O=C(CS(=O)(=O)c1ccc2c(c1)S(=O)(=O)N=CN2)Nc1ccccc1 [SN00792172] | 15.6 |
| CC(C)(C)c1ccc(C(=O)N2CCC3(CC2)N=C(c2cccc(Cl)c2)C(=O)N3)cc1 [SN00792200] | 32.1 |
| COc1ccc(CN2CCC3(CC2)N=C(c2ccc(C)cc2)C(=O)N3)cc1 [SN00792212] | 16.2 |
| Cc1ccc(S(=O)(=O)Nc2ccc3c(c2)N(C(=O)c2ccco2)CCC3)cc1C [SN00792238] | 12.2 |
| CCC(=O)N1CCCc2ccc(NS(=O)(=O)c3ccc(F)c(C)c3)cc21 [SN00792263] | 17.5 |

| Structure (SMILES) | % Inhibition n=1 48h [%] |
| --- | --- |
| O=C(NCc1cccc(Br)c1)c1ncoc1-c1cccs1 [SN00792278] | 6.4 |
| O=C(NCc1ccccc1Cl)c1cc2n(n1)CCCN(Cc1ccc(F)cc1)C2=O [SN00792328] | 0.0 |
| CCOC(=O)CNC(=O)N1Cc2c(C)nn(-c3ccccc3)c2-n2cccc2C1c1cccc(F)c1 (stereo not drawn) [SN00792341] | 8.0 |
| Cn1cc(-c2cc3n(n2)CCC(=O)N3CC(=O)N2CCC3(CC2)OCCO3)c2ccccc21 [SN00792412] | 10.8 |
| Cc1cccc(CN2CCC3(CC2)N=C(c2ccc(C)c(C)c2)C(=O)N3)c1 [SN00792562] | 12.3 |
| CCn1cc(C(=O)NCc2ccccc2)c(=O)c2ccc(C)nc21 [SN00792575] | 6.1 |
| CCOc1ccc(S(=O)(=O)Nc2cccc(-c3ccc(OC)nn3)c2)cc1 [SN00792604] | 10.8 |
| Cc1ccc(NS(=O)(=O)c2cn(C)c(C)n2)c(Br)c1 [SN00792660] | 25.8 |
| CC1Cc2ccccc2N1C(=O)c1cc(-c2cccnc2)[nH]n1 (stereo not drawn) [SN00792679] | 19.0 |
| CCOC(=O)Cc1ccc(NC(=O)N2CCC3(CC2)N=C(c2ccc(F)cc2)C(=O)N3)cc1 [SN00792712] | 14.3 |
| Cc1cccc(C2=NC3(CCN(C(=O)NC4CCCCC4)CC3)NC2=O)c1 [SN00792717] | 13.8 |
| CCC(=O)N1CCC2(CC1)N=C(c1cccc(OC)c1)C(=O)N2 [SN00792731] | 18.9 |
| CN1CCN(CCNC(=O)CN2C(=O)C3CCCCN3c3ccc(C(=O)N4CCCC4)cc32)CC1 (stereo not drawn) [SN00792767] | 13.0 |
| O=S(=O)(c1cccc(F)c1)N1CC(OCc2cccc(F)c2)C1 [SN00792818] | 10.0 |
| CSc1ccc(CCNC(=O)c2ccc3c(c2)nc2n3CCOC2)cc1 [SN00792852] | 12.8 |
| CCN(CC)S(=O)(=O)c1ccc2c(c1)cc(C(=O)NC1CCCC1)n2C [SN00792862] | 0.0 |
| CN(C)S(=O)(=O)c1ccc2c(c1)cc(C(=O)NCCCN1CCc3ccccc3C1)n2C [SN00792874] | 0.0 |
| Cc1ccc(CNC(=O)Cn2c(C)cc(C)c(-c3nc(-c4ccccc4)no3)c2=O)cc1 [SN00792891] | 0.0 |
| Cc1ccc(NC(=O)Cn2c(C)cc(C)c(-c3nc(-c4ccc5c(c4)OCO5)no3)c2=O)cc1 [SN00792912] | 3.6 |
| COc1ccccc1-c1cc(C(=O)Nc2sc(Nc3ccccc3)nc2C(N)=O)[nH]n1 [SN00792956] | 11.1 |
| CCn1c(=O)c(=O)n(CC(=O)NCc2ccc(SC)cc2)c2ccccc21 [SN00792977] | 16.0 |
| O=C(Cn1c(=O)c(=O)n(Cc2ccccc2)c2ccccc21)NCCCN1CCCC1 [SN00792985] | 20.3 |

same assay, conditions: 48 h, re-assessment

| Structure (SMILES) | % Inhibition n=2 48h [%] |
| --- | --- |
| COc1ccc(C2=Nc3ccccc3N(CC(=O)Nc3cccc(F)c3)C(=O)C2)cc1 [SN00791795] | 26.4 |
| COc1ccc(C2=Nc3ccccc3N(Cc3cccc(F)c3)C(=O)C2)cc1 [SN00791806] | 9.6 |

Reference: paper PMC9775191, “A Subset Screen of the Compounds Australia Scaffold Library Identifies 7-Acylaminodibenzoxazepinones as Potent and Selective Hits for Anti-Giardia Drug Discovery” (Biomedicines, 2022)
